From paper PMC4979471 (Cell Death Discovery, 2015)
Like-named read-outs stand apart in the source and are kept apart here.

Columns and labels:
Assay in all cases: Kinase selectivity, P33-radiolabeled assay
Type in all cases: biochemical
[1] = molecular target: T1, CAMK4 (Homo sapiens, UniProt Q16566); conditions: 10 μM ATP
T1 construct: purchased Reaction Biology Corp
T1 sequence (Q16566 1-473): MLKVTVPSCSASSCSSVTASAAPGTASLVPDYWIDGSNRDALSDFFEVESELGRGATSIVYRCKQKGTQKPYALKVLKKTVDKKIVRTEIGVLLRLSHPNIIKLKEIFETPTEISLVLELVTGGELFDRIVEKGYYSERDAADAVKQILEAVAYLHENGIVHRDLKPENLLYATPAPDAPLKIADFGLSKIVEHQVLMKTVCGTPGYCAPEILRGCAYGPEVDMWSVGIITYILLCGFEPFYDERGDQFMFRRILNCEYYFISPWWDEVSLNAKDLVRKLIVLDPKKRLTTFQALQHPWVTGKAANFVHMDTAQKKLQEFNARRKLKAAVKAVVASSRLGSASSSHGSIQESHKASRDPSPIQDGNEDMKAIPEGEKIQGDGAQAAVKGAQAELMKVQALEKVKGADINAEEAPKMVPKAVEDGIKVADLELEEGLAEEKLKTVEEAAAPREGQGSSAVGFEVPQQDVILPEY
In short: (§1)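 Percent residual kinase activity versus DMSO is reported. Conditions: compound at 10 μM, ATP at 10 μM, n = 2.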

[2] = molecular target: T2, MSK1/RPS6KA5 (Homo sapiens, UniProt O75582); conditions: 10 μM ATP
T2 construct: purchased Reaction Biology Corp
In short: as §1

[3] = molecular target: T3, CDK9/cyclin K (Homo sapiens, UniProt P50750); conditions: 10 μM ATP
T3 construct: purchased Reaction Biology Corp
In short: as §1

[4] = molecular target: T4, TLK2 (Homo sapiens, UniProt Q86UE8); conditions: 10 μM ATP
T4 construct: purchased Reaction Biology Corp
In short: as §1

[5] = molecular target: T5, BRSK2 (Homo sapiens, UniProt Q8IWQ3); conditions: 10 μM ATP
T5 construct: purchased Reaction Biology Corp
T5 sequence (Q8IWQ3 1-736): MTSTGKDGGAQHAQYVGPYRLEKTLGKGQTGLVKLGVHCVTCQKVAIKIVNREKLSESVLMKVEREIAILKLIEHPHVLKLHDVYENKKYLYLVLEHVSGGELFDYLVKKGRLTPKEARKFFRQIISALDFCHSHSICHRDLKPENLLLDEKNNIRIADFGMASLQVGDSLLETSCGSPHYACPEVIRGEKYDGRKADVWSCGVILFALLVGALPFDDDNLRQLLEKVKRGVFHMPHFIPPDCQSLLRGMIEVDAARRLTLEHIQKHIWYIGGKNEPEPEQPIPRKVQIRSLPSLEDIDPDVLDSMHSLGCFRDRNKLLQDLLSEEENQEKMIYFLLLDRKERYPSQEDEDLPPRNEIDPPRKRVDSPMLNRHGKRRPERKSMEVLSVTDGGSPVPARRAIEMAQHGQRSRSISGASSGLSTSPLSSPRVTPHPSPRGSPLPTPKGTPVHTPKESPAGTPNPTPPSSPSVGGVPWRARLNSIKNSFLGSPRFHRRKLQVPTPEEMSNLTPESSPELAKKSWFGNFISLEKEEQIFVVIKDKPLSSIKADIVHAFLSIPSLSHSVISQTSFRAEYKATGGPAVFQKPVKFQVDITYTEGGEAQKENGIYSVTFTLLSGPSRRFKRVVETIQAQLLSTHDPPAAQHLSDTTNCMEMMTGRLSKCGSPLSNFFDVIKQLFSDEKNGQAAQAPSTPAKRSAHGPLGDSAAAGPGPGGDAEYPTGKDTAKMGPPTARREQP
In short: as §1

[6] = molecular target: T6, RSK3 (Homo sapiens, UniProt Q15349); conditions: 10 μM ATP
T6 construct: purchased Reaction Biology Corp
In short: as §1

[7] = molecular target: T7, IGF1R (Homo sapiens, UniProt P08069)
T7 construct: purchased Reaction Biology Corp
In short: as §1

[8] = molecular target: T8, FLT1/VEGFR1 (Homo sapiens, UniProt P17948); conditions: 10 μM ATP
T8 construct: purchased Reaction Biology Corp
In short: as §1

[9] = molecular target: T9, IKKe/IKBKE (Homo sapiens, UniProt Q14164); conditions: 10 μM ATP
T9 construct: purchased Reaction Biology Corp
T9 sequence (Q14164 1-716): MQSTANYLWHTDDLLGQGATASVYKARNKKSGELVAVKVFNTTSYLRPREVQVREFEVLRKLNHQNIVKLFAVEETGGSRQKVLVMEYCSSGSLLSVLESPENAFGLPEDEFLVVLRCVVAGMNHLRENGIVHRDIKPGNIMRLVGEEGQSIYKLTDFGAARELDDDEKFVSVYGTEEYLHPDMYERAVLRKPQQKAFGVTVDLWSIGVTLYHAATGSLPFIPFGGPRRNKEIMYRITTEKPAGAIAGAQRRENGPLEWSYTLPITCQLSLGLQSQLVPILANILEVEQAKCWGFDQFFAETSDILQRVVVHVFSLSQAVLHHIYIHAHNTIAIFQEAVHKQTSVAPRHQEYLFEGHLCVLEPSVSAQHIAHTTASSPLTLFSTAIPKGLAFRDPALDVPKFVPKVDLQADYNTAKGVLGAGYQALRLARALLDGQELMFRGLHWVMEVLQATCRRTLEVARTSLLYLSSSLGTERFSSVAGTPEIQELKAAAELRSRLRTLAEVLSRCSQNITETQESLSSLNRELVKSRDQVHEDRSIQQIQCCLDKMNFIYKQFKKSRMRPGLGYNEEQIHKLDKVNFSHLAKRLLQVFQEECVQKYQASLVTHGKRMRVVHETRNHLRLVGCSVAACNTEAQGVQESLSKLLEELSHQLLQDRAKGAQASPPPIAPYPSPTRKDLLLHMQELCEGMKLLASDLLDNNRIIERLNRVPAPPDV
In short: as §1

[10] = read-out: % Enzyme Activity (relative to DMSO controls) AVG
[11] = read-out: % Enzyme Activity (relative to DMSO controls) Data 1
[12] = read-out: % Enzyme Activity (relative to DMSO controls) Data 2

T6 sequence (Q15349 whole entry): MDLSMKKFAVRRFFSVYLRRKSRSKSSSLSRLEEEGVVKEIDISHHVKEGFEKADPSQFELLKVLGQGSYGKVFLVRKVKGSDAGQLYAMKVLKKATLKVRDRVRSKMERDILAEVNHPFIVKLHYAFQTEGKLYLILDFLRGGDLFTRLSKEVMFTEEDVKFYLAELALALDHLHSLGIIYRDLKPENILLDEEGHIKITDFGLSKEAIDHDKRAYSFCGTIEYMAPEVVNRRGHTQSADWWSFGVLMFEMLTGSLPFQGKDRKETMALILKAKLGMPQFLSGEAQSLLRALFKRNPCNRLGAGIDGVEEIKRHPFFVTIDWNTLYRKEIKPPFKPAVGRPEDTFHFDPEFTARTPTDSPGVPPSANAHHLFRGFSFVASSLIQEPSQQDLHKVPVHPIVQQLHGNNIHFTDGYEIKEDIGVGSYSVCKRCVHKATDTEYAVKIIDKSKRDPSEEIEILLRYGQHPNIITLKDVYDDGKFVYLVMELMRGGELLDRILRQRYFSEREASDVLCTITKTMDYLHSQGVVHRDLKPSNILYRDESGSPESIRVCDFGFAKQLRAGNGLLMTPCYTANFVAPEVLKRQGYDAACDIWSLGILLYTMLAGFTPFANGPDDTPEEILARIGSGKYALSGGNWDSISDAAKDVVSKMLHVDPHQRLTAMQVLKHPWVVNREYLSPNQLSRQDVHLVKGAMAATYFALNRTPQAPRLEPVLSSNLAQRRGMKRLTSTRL
T3 sequence (P50750 whole entry): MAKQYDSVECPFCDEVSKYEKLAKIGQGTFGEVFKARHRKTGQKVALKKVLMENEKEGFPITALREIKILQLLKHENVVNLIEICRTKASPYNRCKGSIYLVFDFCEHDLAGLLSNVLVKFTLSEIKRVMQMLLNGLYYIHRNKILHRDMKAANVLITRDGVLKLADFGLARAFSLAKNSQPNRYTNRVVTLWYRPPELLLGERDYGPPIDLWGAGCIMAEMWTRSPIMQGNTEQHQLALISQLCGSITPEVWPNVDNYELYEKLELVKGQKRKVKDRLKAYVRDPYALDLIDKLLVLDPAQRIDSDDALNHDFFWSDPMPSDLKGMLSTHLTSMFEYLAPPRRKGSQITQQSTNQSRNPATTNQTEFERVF
T3 sequence (O75909 whole entry partner): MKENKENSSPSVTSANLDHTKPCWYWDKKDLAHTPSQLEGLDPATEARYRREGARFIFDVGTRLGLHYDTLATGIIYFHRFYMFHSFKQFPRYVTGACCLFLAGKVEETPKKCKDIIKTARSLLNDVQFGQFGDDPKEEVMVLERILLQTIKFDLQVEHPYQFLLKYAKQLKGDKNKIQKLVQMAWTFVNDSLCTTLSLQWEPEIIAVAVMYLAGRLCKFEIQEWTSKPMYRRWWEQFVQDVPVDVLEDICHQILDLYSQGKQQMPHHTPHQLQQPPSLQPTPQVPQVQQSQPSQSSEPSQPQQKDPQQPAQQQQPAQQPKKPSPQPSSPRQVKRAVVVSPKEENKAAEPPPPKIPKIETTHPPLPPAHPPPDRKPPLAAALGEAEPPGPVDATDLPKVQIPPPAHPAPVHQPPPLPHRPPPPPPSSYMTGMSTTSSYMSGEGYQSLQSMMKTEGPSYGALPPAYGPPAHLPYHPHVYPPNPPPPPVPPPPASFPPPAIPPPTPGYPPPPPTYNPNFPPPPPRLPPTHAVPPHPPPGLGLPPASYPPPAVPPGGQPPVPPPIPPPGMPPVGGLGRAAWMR
T2 sequence (O75582 whole entry): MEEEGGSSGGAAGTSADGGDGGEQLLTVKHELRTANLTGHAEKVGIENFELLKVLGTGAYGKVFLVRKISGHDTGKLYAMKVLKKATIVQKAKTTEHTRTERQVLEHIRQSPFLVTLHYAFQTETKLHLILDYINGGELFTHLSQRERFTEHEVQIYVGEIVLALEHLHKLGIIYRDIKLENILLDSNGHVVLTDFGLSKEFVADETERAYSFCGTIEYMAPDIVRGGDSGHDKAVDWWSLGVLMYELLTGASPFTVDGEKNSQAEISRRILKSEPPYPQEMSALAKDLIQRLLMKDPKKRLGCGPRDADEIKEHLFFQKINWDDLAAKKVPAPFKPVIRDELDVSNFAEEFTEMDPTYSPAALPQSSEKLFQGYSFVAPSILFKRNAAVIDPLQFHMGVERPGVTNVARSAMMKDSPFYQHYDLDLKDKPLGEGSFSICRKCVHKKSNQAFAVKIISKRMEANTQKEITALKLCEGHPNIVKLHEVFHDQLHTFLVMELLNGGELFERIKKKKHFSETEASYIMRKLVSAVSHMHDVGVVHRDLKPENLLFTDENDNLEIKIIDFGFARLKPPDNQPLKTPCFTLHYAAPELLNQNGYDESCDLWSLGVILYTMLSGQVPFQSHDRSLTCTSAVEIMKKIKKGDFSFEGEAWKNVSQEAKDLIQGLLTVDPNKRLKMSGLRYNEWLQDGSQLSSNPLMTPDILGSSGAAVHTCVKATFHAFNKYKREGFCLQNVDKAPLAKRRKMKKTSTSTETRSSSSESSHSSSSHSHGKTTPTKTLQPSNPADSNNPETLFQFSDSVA
T4 sequence (Q86UE8 whole entry): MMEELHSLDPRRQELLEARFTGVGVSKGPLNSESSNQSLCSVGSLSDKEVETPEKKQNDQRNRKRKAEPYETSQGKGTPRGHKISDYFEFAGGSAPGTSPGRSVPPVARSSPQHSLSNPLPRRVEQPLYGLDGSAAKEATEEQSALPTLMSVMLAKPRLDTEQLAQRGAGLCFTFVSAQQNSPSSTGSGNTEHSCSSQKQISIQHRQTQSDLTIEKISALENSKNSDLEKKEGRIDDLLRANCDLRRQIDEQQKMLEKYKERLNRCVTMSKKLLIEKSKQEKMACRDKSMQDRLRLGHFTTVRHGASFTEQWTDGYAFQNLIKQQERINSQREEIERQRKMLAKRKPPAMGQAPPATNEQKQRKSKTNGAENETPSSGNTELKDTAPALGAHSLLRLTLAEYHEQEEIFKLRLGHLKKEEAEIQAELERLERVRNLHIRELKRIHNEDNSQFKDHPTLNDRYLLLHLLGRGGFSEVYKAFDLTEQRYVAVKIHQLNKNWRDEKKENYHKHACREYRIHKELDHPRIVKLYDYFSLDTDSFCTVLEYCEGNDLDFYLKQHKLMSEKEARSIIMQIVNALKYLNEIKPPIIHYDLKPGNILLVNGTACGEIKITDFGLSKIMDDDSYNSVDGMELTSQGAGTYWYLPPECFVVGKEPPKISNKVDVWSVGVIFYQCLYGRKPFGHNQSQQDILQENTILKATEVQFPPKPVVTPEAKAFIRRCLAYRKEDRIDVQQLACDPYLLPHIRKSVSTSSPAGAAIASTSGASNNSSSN
T7 sequence (P08069 31-1367): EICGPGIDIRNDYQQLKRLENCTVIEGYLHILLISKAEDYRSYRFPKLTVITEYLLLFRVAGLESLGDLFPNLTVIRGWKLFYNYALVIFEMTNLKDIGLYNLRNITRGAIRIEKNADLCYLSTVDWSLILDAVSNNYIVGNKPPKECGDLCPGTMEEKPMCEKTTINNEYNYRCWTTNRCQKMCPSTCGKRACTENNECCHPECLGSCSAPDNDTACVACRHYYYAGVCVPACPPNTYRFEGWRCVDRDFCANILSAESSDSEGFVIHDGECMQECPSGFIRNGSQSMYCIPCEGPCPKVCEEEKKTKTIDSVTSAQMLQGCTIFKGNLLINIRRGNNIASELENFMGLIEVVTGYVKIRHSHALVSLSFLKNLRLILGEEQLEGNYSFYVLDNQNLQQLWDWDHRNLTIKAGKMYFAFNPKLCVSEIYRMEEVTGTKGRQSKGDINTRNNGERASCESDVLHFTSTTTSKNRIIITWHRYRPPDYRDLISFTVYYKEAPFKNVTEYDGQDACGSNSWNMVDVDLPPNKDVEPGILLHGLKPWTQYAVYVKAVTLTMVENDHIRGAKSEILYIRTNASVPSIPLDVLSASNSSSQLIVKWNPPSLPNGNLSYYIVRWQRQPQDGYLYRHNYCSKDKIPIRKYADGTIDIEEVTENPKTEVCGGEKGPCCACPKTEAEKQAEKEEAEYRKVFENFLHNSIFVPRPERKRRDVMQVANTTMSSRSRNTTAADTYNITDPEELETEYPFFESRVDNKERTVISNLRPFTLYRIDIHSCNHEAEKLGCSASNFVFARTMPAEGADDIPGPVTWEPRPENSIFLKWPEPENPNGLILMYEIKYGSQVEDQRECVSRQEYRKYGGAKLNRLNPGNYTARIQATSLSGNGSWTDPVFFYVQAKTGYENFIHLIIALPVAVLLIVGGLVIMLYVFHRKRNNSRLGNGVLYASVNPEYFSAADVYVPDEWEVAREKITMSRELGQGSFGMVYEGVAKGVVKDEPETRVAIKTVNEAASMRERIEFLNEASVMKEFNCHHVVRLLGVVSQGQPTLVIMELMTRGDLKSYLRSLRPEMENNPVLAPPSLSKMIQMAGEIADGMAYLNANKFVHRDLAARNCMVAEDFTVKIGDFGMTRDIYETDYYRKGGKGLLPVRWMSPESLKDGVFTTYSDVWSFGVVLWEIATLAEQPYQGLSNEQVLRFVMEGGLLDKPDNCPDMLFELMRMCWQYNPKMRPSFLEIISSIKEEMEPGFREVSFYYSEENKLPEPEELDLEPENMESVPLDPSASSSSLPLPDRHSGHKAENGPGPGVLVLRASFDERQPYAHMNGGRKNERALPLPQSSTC

CC(C)(C)C(=O)N1N=CC[C@H]1c1ccccc1 [GSK′963]
remaining activity at 10 µM [1, 10]: 96.7% | remaining activity at 10 µM [1, 11]: 95.5% | remaining activity at 10 µM [1, 12]: 97.9% | remaining activity at 10 µM [2, 10]: 108% | remaining activity at 10 µM [2, 11]: 108% | remaining activity at 10 µM [2, 12]: 108% | remaining activity at 10 µM [3, 10]: 114% | remaining activity at 10 µM [3, 11]: 112% | remaining activity at 10 µM [3, 12]: 116% | remaining activity at 10 µM [4, 10]: 93.2% | remaining activity at 10 µM [4, 11]: 92.9% | remaining activity at 10 µM [4, 12]: 93.5% | remaining activity at 10 µM [5, 10]: 104% | remaining activity at 10 µM [5, 11]: 109% | remaining activity at 10 µM [5, 12]: 98.7% | remaining activity at 10 µM [6, 10]: 101% | remaining activity at 10 µM [6, 11]: 102% | remaining activity at 10 µM [6, 12]: 99.6% | remaining activity at 10 µM ([7]; 10 uM, 10 μM ATP, read-out: % Enzyme Activity (relative to DMSO controls) AVG): 103% | remaining activity at 10 µM ([7]; 10 uM, 10 μM ATP, read-out: % Enzyme Activity (relative to DMSO controls) Data 2): 104% | remaining activity at 10 µM [7, 11]: 101% | remaining activity at 10 µM [8, 10]: 107% | remaining activity at 10 µM [8, 11]: 106% | remaining activity at 10 µM [8, 12]: 107% | remaining activity at 10 µM [9, 10]: 70% | remaining activity at 10 µM [9, 11]: 68.1% | remaining activity at 10 µM [9, 12]: 71.8%
